Results from PubChem BioAssay (NCI).
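Protocol summary: plate cells (96-well), add compound at 5 concentrations, incubate 48 h, interpolate endpoints linearly. The concentration for 50% growth inhibition is given as GI50. TGI: concentration producing complete growth inhibition.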

Legend:
Experiment in all cases: NCI tumour cell line growth inhibition, 48 h
MDA-MB-435 = system: MDA-MB-435
HT29 colon = system: HT29 colon
HOP-92 NSCLC = system: HOP-92 NSCLC
ACHN renal = system: ACHN renal
SR leukemia = system: SR leukemia
HOP-62 NSCLC = system: HOP-62 NSCLC
TK-10 renal = system: TK-10 renal
PC-3 prostate = system: PC-3 prostate
M14 melanoma = system: M14 melanoma
SF-295 CNS = system: SF-295 CNS
NCI-H23 lung = system: NCI-H23 lung
786-0 renal = system: 786-0 renal
BT-549 breast = system: BT-549 breast
SN12C renal = system: SN12C renal
MCF7 breast = system: MCF7 breast
NCI/ADR-RES ovarian = system: NCI/ADR-RES ovarian
OVCAR-3 ovarian = system: OVCAR-3 ovarian
IGROV1 ovarian = system: IGROV1 ovarian
LOX IMVI melanoma = system: LOX IMVI melanoma
NCI-H226 lung = system: NCI-H226 lung
RPMI-8226 leukemia = system: RPMI-8226 leukemia
OVCAR-5 ovarian = system: OVCAR-5 ovarian
HCT-116 colon = system: HCT-116 colon
CCRF-CEM leukemia = system: CCRF-CEM leukemia
OVCAR-8 ovarian = system: OVCAR-8 ovarian
DU-145 prostate = system: DU-145 prostate
SK-MEL-28 melanoma = system: SK-MEL-28 melanoma
SW-620 colon = system: SW-620 colon
CAKI-1 renal = system: CAKI-1 renal
EKVX NSCLC = system: EKVX NSCLC
SK-MEL-5 melanoma = system: SK-MEL-5 melanoma
SF-268 CNS = system: SF-268 CNS
KM12 colon = system: KM12 colon
SK-OV-3 ovarian = system: SK-OV-3 ovarian
K-562 leukemia = system: K-562 leukemia
MOLT-4 leukemia = system: MOLT-4 leukemia
SK-MEL-2 melanoma = system: SK-MEL-2 melanoma
SF-539 CNS = system: SF-539 CNS
U251 CNS = system: U251 CNS
UO-31 renal = system: UO-31 renal
COLO 205 colon = system: COLO 205 colon
HCT-15 colon = system: HCT-15 colon
MDA-MB-231 breast = system: MDA-MB-231 breast
NCI-H460 lung = system: NCI-H460 lung
UACC-257 melanoma = system: UACC-257 melanoma
RXF 393 renal = system: RXF 393 renal
HCC-2998 colon = system: HCC-2998 colon
A549 NSCLC = system: A549 NSCLC
OVCAR-4 ovarian = system: OVCAR-4 ovarian
NCI-H522 lung = system: NCI-H522 lung
SNB-19 CNS = system: SNB-19 CNS
MALME-3M melanoma = system: MALME-3M melanoma
T-47D breast = system: T-47D breast
HS 578T breast = system: HS 578T breast
HL-60(TB) leukemia = system: HL-60(TB) leukemia
SNB-75 CNS = system: SNB-75 CNS
UACC-62 melanoma = system: UACC-62 melanoma

O=S(=O)(Nc1cc(F)cc(Cl)c1)c1ccc(-c2cnc(C3CC3)o2)cc1
GI50 (MDA-MB-435): 0.274 µM | TGI (MDA-MB-435): 1.22 µM | GI50 (HT29 colon): 0.515 µM | TGI (HT29 colon): 10.6 µM | GI50 (HOP-92 NSCLC): 0.979 µM | TGI (HOP-92 NSCLC): 8.45 µM | GI50 (ACHN renal): 4.67 µM | TGI (ACHN renal): 45 µM | GI50 (SR leukemia): 0.462 µM | TGI (SR leukemia): > 100 µM | GI50 (HOP-62 NSCLC): 1.56 µM | TGI (HOP-62 NSCLC): 17.7 µM | GI50 (TK-10 renal): 6.29 µM | TGI (TK-10 renal): 29.6 µM | GI50 (PC-3 prostate): 1.25 µM | TGI (PC-3 prostate): 14.3 µM | GI50 (M14 melanoma): 0.923 µM | TGI (M14 melanoma): 15.5 µM | GI50 (SF-295 CNS): 0.389 µM | TGI (SF-295 CNS): 10.3 µM | GI50 (NCI-H23 lung): 2.62 µM | TGI (NCI-H23 lung): 18.3 µM | GI50 (786-0 renal): 4.88 µM | TGI (786-0 renal): 20.9 µM | GI50 (BT-549 breast): 0.933 µM | TGI (BT-549 breast): 18.8 µM | GI50 (SN12C renal): 3.49 µM | TGI (SN12C renal): 17.4 µM | GI50 (MCF7 breast): 0.485 µM | TGI (MCF7 breast): 23 µM | GI50 (NCI/ADR-RES ovarian): 1.08 µM | TGI (NCI/ADR-RES ovarian): 15.5 µM | GI50 (OVCAR-3 ovarian): 0.489 µM | TGI (OVCAR-3 ovarian): 12.2 µM | GI50 (IGROV1 ovarian): 0.771 µM | TGI (IGROV1 ovarian): 17.5 µM | GI50 (LOX IMVI melanoma): 2.5 µM | TGI (LOX IMVI melanoma): 20.8 µM | GI50 (NCI-H226 lung): 3.46 µM | TGI (NCI-H226 lung): 17.9 µM | GI50 (RPMI-8226 leukemia): 2.74 µM | TGI (RPMI-8226 leukemia): 40.6 µM | GI50 (OVCAR-5 ovarian): 4.43 µM | TGI (OVCAR-5 ovarian): 21.5 µM | GI50 (HCT-116 colon): 0.719 µM | TGI (HCT-116 colon): 16.4 µM | GI50 (CCRF-CEM leukemia): 1.71 µM | TGI (CCRF-CEM leukemia): > 100 µM | GI50 (OVCAR-8 ovarian): 3.72 µM | TGI (OVCAR-8 ovarian): 21.5 µM | GI50 (DU-145 prostate): 3.58 µM | TGI (DU-145 prostate): 23.2 µM | GI50 (SK-MEL-28 melanoma): 10.3 µM | TGI (SK-MEL-28 melanoma): 23.7 µM | GI50 (SW-620 colon): 0.599 µM | TGI (SW-620 colon): 15.5 µM | GI50 (CAKI-1 renal): 0.595 µM | TGI (CAKI-1 renal): 17.5 µM | GI50 (EKVX NSCLC): 4.86 µM | TGI (EKVX NSCLC): 39.1 µM | GI50 (SK-MEL-5 melanoma): 1.83 µM | TGI (SK-MEL-5 melanoma): 11.7 µM | GI50 (SF-268 CNS): 6.47 µM | TGI (SF-268 CNS): 26.2 µM | GI50 (KM12 colon): 0.614 µM | TGI (KM12 colon): 16.7 µM | GI50 (SK-OV-3 ovarian): 4.84 µM | TGI (SK-OV-3 ovarian): 25.9 µM | GI50 (K-562 leukemia): 0.422 µM | TGI (K-562 leukemia): > 100 µM | GI50 (MOLT-4 leukemia): 2.55 µM | TGI (MOLT-4 leukemia): > 100 µM | GI50 (SK-MEL-2 melanoma): 4.66 µM | TGI (SK-MEL-2 melanoma): 26.9 µM | GI50 (SF-539 CNS): 1.25 µM | TGI (SF-539 CNS): 10.5 µM | GI50 (U251 CNS): 1.55 µM | TGI (U251 CNS): 15.2 µM | GI50 (UO-31 renal): 2.96 µM | TGI (UO-31 renal): 17.6 µM | GI50 (COLO 205 colon): 1.59 µM | TGI (COLO 205 colon): 11.8 µM | GI50 (HCT-15 colon): 0.529 µM | TGI (HCT-15 colon): 17 µM | GI50 (MDA-MB-231 breast): 4.14 µM | TGI (MDA-MB-231 breast): 19.3 µM | GI50 (NCI-H460 lung): 0.64 µM | TGI (NCI-H460 lung): 13.8 µM | GI50 (UACC-257 melanoma): 13.6 µM | TGI (UACC-257 melanoma): 34.9 µM | GI50 (RXF 393 renal): 1.07 µM | TGI (RXF 393 renal): 6.93 µM | GI50 (HCC-2998 colon): 3.71 µM | TGI (HCC-2998 colon): 18.7 µM | GI50 (A549 NSCLC): 1.9 µM | TGI (A549 NSCLC): 19.7 µM | GI50 (OVCAR-4 ovarian): 5.64 µM | TGI (OVCAR-4 ovarian): 21.9 µM | GI50 (NCI-H522 lung): 1.09 µM | TGI (NCI-H522 lung): 16.5 µM | GI50 (SNB-19 CNS): 1.46 µM | TGI (SNB-19 CNS): 16.7 µM | GI50 (MALME-3M melanoma): 2.53 µM | TGI (MALME-3M melanoma): 28 µM | GI50 (T-47D breast): 1.7 µM | TGI (T-47D breast): 33.5 µM | GI50 (HS 578T breast): 1.02 µM | TGI (HS 578T breast): 17.2 µM | GI50 (HL-60(TB) leukemia): 0.761 µM | TGI (HL-60(TB) leukemia): 24.2 µM | GI50 (SNB-75 CNS): 0.344 µM | TGI (SNB-75 CNS): 3.33 µM | GI50 (UACC-62 melanoma): 0.458 µM | TGI (UACC-62 melanoma): 14.5 µM
